# Where two headings read alike, the source gives them in different places.
# Tests used:
# [1] = test system: U251 (glioma) cells; assay: Antiproliferative sulforhodamine B assay, U251; format: cell-based; details: Homo sapiens, U-251, 48 h treatment, SRB; for IC100: read-out: Total growth inhibition (TGI)
# Description: (§1) The in vitro antiproliferative activity of populene analogues 2a–e and 3a–e was investigated toward nine human tumor cell lines [CNS (U251), breast (MCF-7), ovarian (NCI-ADR/RES, OVCAR-03), renal (786-0), non-small cell lung (NCI-H460), prostate (PC-3), colon (HT-29) and leukemia (k-562)] and one human normal cell line (HaCat, human keratinocytes). The populene D analogues were tested at concentrations between 0.25 and 250 µg/mL and doxorubicin (DOX 0.025–25 µg/mL) was used as positive control. […] To analyze the GI50 parameter, mean log GI50 was calculated by conversion of the GI50 values for each tumor cell line tested (not including the normal cell line HaCat) against a test compound and then these values were averaged.
# (§2) Stock cultures were grown in 5 mL of RPMI 1640 (GIBCO BRL, Life Technologies) supplemented with 5% of fetal bovine serum. Penicillin:streptomycin (1,000 μg mL^−1:1,000 UI mL^‑1, 1 mL L^−1) was added to the experimental cultures.
# (§3) Afterwards cells were fixed with 50% trichloroacetic acid and cell proliferation determined by spectrophotometric quantification (540 nm) of cellular protein content using sulforhodamine B assay[20]. Doxorubicin (0.025–25 mg/mL) was used as positive control. Three measurements were obtained at the beginning of incubation (time zero, T0) and 48 h post-incubation for compound-free (C) and tested (T) cells. Cell proliferation was determined according to the equation 100 × [(T − T0)/C − T0], for T0 < T ≤ C, and 100 × [(T − T0)/T0], for T ≤ T0 and a concentration-response curve for each cell line was plotted and, from these curves, GI50 (concentration causing 50% growth inhibition) and TGI (concentration that promotes total growth inhibition) were determined by means of non-linear regression analysis using software ORIGIN 8.0 (OriginLab Corporation) [20, 21] The average activity (mean of log GI50) of each compound tested was also determined using MS Excel software.
# [2] = test system: MCF-7 (breast) cells; assay: Antiproliferative sulforhodamine B assay, MCF-7; format: cell-based; details: Homo sapiens, MCF7, MCF-7 mammary, 48 h treatment, SRB; for IC100: read-out: Total growth inhibition (TGI)
# Description: as §1, §2, §3
# [3] = test system: NCI-ADR/RES (ovarian expressing phenotype multiple drugs resistance) cells; assay: Antiproliferative sulforhodamine B assay, NCI-ADR/RES; format: cell-based; details: Homo sapiens, NCI-ADR/RES drug resistant ovary, 48 h treatment, SRB; for IC100: read-out: Total growth inhibition (TGI)
# Description: as §1, §2, §3
# [4] = test system: 786-0 (renal) cells; assay: Antiproliferative sulforhodamine B assay, 786-0; format: cell-based; details: Homo sapiens, 786-0 kidney, 48 h treatment, SRB; for IC100: read-out: Total growth inhibition (TGI)
# Description: as §1, §2, §3
# [5] = test system: PC-3 (prostate) cells; assay: Antiproliferative sulforhodamine B assay, PC-3; format: cell-based; details: Homo sapiens, Prostate cell, 48 h treatment, SRB; for IC100: read-out: Total growth inhibition (TGI)
# Description: (§4) The populene D analogues were tested at concentrations between 0.25 and 250 µg/mL and doxorubicin (DOX 0.025–25 µg/mL) was used as positive control. […] To analyze the GI50 parameter, mean log GI50 was calculated by conversion of the GI50 values for each tumor cell line tested (not including the normal cell line HaCat) against a test compound and then these values were averaged.
# as §2, §3
# [6] = test system: OVCAR-3 (ovarian) cells; assay: Antiproliferative sulforhodamine B assay, OVCAR-3; format: cell-based; details: Homo sapiens, OVCAR-3 ovary, 48 h treatment, SRB; for IC100: read-out: Total growth inhibition (TGI)
# Description: as §4, §2, §3
# [7] = test system: HT-29 (colon) cells; assay: Antiproliferative sulforhodamine B assay, HT-29; format: cell-based; details: Homo sapiens, 48 h treatment, SRB; for IC100: read-out: Total growth inhibition (TGI)
# Description: as §4, §2, §3
# [8] = test system: K-562 (leukemia) cells; assay: Antiproliferative sulforhodamine B assay, K-562; format: cell-based; details: Homo sapiens, K562, 48 h treatment, SRB; for IC100: read-out: Total growth inhibition (TGI)
# Description: as §1
# (§5) Cells in 96-well plates (100 μL cells/well) were exposed to various concentrations of compounds 2a–d and 3a–d diluted in DMSO (0.25, 2.5, 25 and 250 μg/mL) at 37 °C, 5% of CO2 for 48 h. […] Afterwards cells were fixed with 50% trichloroacetic acid and cell proliferation determined by spectrophotometric quantification (540 nm) of cellular protein content using sulforhodamine B assay[20]. Doxorubicin (0.025–25 mg/mL) was used as positive control. Three measurements were obtained at the beginning of incubation (time zero, T0) and 48 h post-incubation for compound-free (C) and tested (T) cells. Cell proliferation was determined according to the equation 100 × [(T − T0)/C − T0], for T0 < T ≤ C, and 100 × [(T − T0)/T0], for T ≤ T0 and a concentration-response curve for each cell line was plotted and, from these curves, GI50 (concentration causing 50% growth inhibition) and TGI (concentration that promotes total growth inhibition) were determined by means of non-linear regression analysis using software ORIGIN 8.0 (OriginLab Corporation) [20, 21] The average activity (mean of log GI50) of each compound tested was also determined using MS Excel software.
# [9] = Antiproliferative sulforhodamine B assay, HaCat normal cell line; format: cell-based, human; details: human; HaCat normal immortalized keratinocytes, 48 h treatment, SRB
# Description: as §1, §2, §3
# [10] = test system: HaCat (immortalized human keratinocytes); assay: as above; format: cell-based; details: 48 h treatment, SRB
# Description: as §1, §2, §3
# [11] = test system: nine human tumor cell lines; assay: Average antiproliferative activity over the tumor cell line panel (NCI criteria); format: cell-based; details: for GI50: Homo sapiens, 48 h; for Cytostatic activity classified in words by NCI criteria on mean logGI50: weak 1.1-1.5, moderate 0-1.1, potent <0, inactive >1.5
# Description: as §1, §5
# [12] = test system: NCI-H460 (lung, non-small cells) cells; assay: Antiproliferative sulforhodamine B assay, NCI-H460
# Description: as §4, §2, §3
# [13] = average of logGI50 (GI50 in μg/mL) over tumor cell lines tested, not including HaCat, read-out: Mean logGI50 (converted)
# [14] = class symbol by NCI's criteria on mean logGI50, read-out: Mean logGI50 activity class (NCI's criteria)
Compound,GI50 [1] [mg/L],IC100 [1] [µg/mL],GI50 [2] [mg/L],IC100 [2] [µg/mL],GI50 [3] [mg/L],IC100 [3] [µg/mL],GI50 [4] [mg/L],IC100 [4] [µg/mL],GI50 [5] [mg/L],IC100 [5] [µg/mL],GI50 [6] [mg/L],IC100 [6] [µg/mL],GI50 [7] [mg/L],IC100 [7] [µg/mL],GI50 [8] [mg/L],IC100 [8] [µg/mL],GI50 at 48 h [9] [mg/L],Total growth inhibition (TGI) [10] [mg/L],"GI50 [11, 13] [mg/L]","GI50 [11, 14] [mg/L]",further results
"COc1cccc2c1CCC1=C2C(C)COC1(C)C (stereo not drawn) [2a, 4,5,6-Tetrahydro-7-methoxy-1,4,4-trimethyl-1H-benzo[f]isochromene]",25,52,25,51.3,25,83.5,25,50.6,25,64.6,25,52.3,25,39.1,3.1,> 250,25,66.9,14.8,12.6 to 31.6,melting point: 65 to 67 °C
"COc1ccc2c(c1)CCC1=C2C(C)COC1(C)C (stereo not drawn) [2b, 2,4,5,6-Tetrahydro-8-methoxy-1,4,4-trimethyl-1H-benzo[f]isochromene]",24.6,53.5,23.2,46.9,26.8,104,25.5,44,27,41.4,24.5,56.2,6.6,33,9.6,> 250,26.1,54.4,15.1,12.6 to 31.6,melting point: 89.5 to 91.3 °C
"COc1ccc2c(c1)C1=C(CC2)C(C)(C)OCC1C (stereo not drawn) [2c, 2,4,5,6-Tetrahydro-9-methoxy-1,4,4-trimethyl-1H-benzo[f]isochromene]",25,40,25,45.3,25,66.3,25,36.1,25,69.2,25,67,25,41.8,25,128,25,32.0,16.2,12.6 to 31.6,–
"COc1cc2c(cc1OC)C1=C(CC2)C(C)(C)OCC1C (stereo not drawn) [2d, 2,4,5,6-Tetrahydro-8,9-dimethoxy-1,4,4-trimethyl-1H-benzo[f]isochromene]",> 250,> 250,38.8,> 250,101,> 250,45.8,> 250,71.4,> 250,193,> 250,23.1,> 250,84.6,> 250,> 250,>250,> 50.1,> 31.6,Cytostatic activity classified in words by NCI criteria on mean logGI50 [11]: inactive; melting point: 115 to 117 °C
"CC1COC(C)(C)C2=C1c1cccc(O)c1CC2 (stereo not drawn) [3a, 1,4,4-Trimethyl-1,4,5,6-tetrahydro-2H-benzo[f]isochromen-7-ol]",> 250,> 250,> 250,> 250,> 250,> 250,37.3,> 250,> 250,> 250,> 250,> 250,> 250,> 250,> 250,> 250,> 250,>250,> 209,> 31.6,"Cytostatic activity classified in words by NCI criteria on mean logGI50 [11]: inactive; melting point: 139.2 to 140.3 °C; GI50 ([12]; Homo sapiens, NCI-H460, 48 h): > 250 mg/L; Total growth inhibition (TGI) ([12]; NCI-H460 lung, 48 h treatment, SRB): >250 mg/L"

# — paper PMC6269118, “Populene D Analogues: Design, Concise Synthesis and Antiproliferative Activity” (Molecules, 2012)
